Reference: US11833139B2 (priority 2019, dated 2023)
Converted amounts (≈) assume the structure as drawn. Like-named read-outs stand apart in the source and are kept apart here.

Columns and labels:
A. baumannii HUMC1 = assay: MIC by broth microdilution (CLSI), carbapenem-resistant clinical isolate HUMC1; assay type: cell-based, Acinetobacter baumannii; settings: Acinetobacter baumannii, read-out: MIC
Protocol: (§1) Two A. baumannii isolates were used in this example: HUMC1 (BV374) (Spellberg/Luna Laboratory, University of Southern California, Los Angeles, Calif.) and UNT091-1 (BV378) (UNT Health Science Center, Fort Worth, Tex.). The HUMC1 isolate is a hyper-virulent drug-resistant clinical strain isolated from a blood-stream infection. […] The isolates were stored at −80° C. as 20% (v/v) glycerol cultures.
(§2) MICs were determined by the broth microdilution method following the guidelines of the Clinical Laboratory Standards Institute (CLSI) using RPMI supplemented with […] cationic-adjusted Muller Hinton broth (CA-MHB) as assay medium. To prepare the bacterial inocula, 3-5 colonies of bacterial strains from over-night growth on ChromAgar orientation plates (CHROMagar Cat. No. RT412) were suspended in 5 mL saline. The turbidity of the bacterial suspension was adjusted to 0.5 McFarland units (equal to an optical density at 610 nm (OD610) to 0.08-0.1). This suspension was diluted 200-fold in RPMI supplemented with 10% (v/v) FCS to reach a final concentration of […] colony forming units (CFU)/mL and was used to inoculate the microtiter plates.
(§3) Serial 2-fold dilutions of the antibiotics were prepared in a separate 96-well plate polypropylene U-bottom plate (Ratiolab Cat. No. 6018111) in RPMI supplemented with 10% (v/v) FCS at 10-fold of the final test concentrations and 10 μl of the dilutions were transferred to new 96-well polystyrene U-bottom microtiter plates with a parafilm plate cover.
(§4) The plates were then inoculated with 90 μL per well of the prepared bacterial suspensions in using a multichannel pipette (Eppendorf), with the first column containing 4 wells each for growth control (no antibiotic). […] The MIC was recorded as the lowest concentration of the compound that inhibited bacterial growth by visual inspection. MICs were determined at least in duplicates and in the case of variations, the higher values are provided.

A. baumannii UNT091 [1] = assay: MIC by broth microdilution (CLSI), carbapenem-resistant clinical isolate UNT091; assay type: cell-based, Acinetobacter baumannii; settings: Acinetobacter baumannii, read-out: MIC
Protocol: as §1, §2, §3, §4

A. baumannii ATCC 17978 = assay: MIC in fhuE expressing A. baumannii strains (plasmid-based expression, IPTG inducible); assay type: cell-based, Acinetobacter baumannii; settings: for MIC: Acinetobacter baumannii
Text: The fhuE gene (AWC45_RS10145) from the A. baumannii HUMC1 strain was cloned into the E. coli/A. baumannii shuttle plasmid pVT111 under the control of the isopropyl-beta-D-1-thiogalactopyranoside (IPTG) inducible promoter Ptrc-lacO. The resulting plasmid and the original pVT111 plasmid (control) were transferred to the A. baumannii strain ATCC-17978 by conjugation and transconjugants were selected on LB agar plates containing kanamycin.

A. baumannii ACC00445 [2] = tested on: A. baumannii ACC00445
Protocol: (§5) A. baumannii clinical isolates were stored at −80° C. as 20% (v/v) in glycerol stock cultures.
(§6) Selective agar plates were prepared using RPMI powder (Sigma R7755) dissolved at 10.3 g/L with agar at 15 g/L and boiled until complete agar melting. After cooling the media to 45° C., 0.3 g/L L-glutamine (Sigma G7513), 25 mM HEPES (Gibco 15630-056) and 10% (v/v) FCS (Gibco 10500-064) were added.
(§7) The culture inocula were prepared from a bacterial NaCl suspension at 0.5 McFarland diluted 200-times in 100 mL of RPMI (Sigma R8758)+10% FCS in 500 mL flasks to reach ˜5×10^5 CFU/mL. The flasks were incubated for 24 h at 37° C. under shaking at 220 rpm. After incubation, the cells were pelleted by centrifugation (10 min, 7000 rpm at RT) and re-suspended in 1 mL PBS. […] After incubation at 35° C. for 24 h colonies were counted, and the frequency of resistance was calculated as the ratio between the number of colonies growing on plates with antibiotic and the total colony count of the inocula.

A. baumannii HUMC-1 = settings: HUMC-1, rifabutin 0.1 mg/L
Protocol: as §5, §6, §7

A. baumannii LAC-4 = tested on: A. baumannii LAC-4
Protocol: as §5, §6, §7

A. baumannii UNT091 [3] = tested on: A. baumannii UNT091
Protocol: as §5, §6, §7

A. baumannii UNT238 = tested on: A. baumannii UNT238
Protocol: as §5, §6, §7

[4] = tested on: five clinical A. baumannii strains; settings: rifabutin concentrations of ≥2 mg/L
Protocol: as §5, §6, §7

A. baumannii ACC00445 [5] = assay: Neutropenic sepsis mouse model (CD-1 mice, IP infection); assay type: in vivo; settings: IV at 1 h and 5 h post-infection, 1 mg/kg
Text: The CD-1 mice were IP infected with A. baumannii ACC00445 strain in the presence of […].

A. baumannii UNT091 [6] = assay: Neutropenic lung infection mouse model (CD-1 mice, intranasal infection); assay type: in vivo; settings: UNT091, IV at 2 h post-infection, 24 hours of treatment, doses of <0.5 mg/kg
Protocol: (§8) After 24 hours of treatment the mice were sacrificed and colony forming units in the lungs were measured.

A. baumannii UNT093 = assay: as above; assay type: in vivo; settings: UNT093, IV at 2 h post-infection, 24 hours of treatment, doses of <0.5 mg/kg
Protocol: as §8

A. baumannii [7] = assay: Dose fractionation in a neutropenic mouse model of infection; assay type: in vivo; settings: IV q24 h, q12 h or q6 h
Text: FIG. 5 summarizes the results of dose fractionation experiments in a neutropenic mouse model of infection.

A. baumannii [8] = assay: Target exposures (PK/PD index, sigmoid Emax model) for 1-log reduction in lung CFUs; assay type: in vivo
[9] = tested on: A. baumannii UNT091-1 ΔfhuE mutant; assay: Neutropenic lung infection in CD-1 mice, wildtype versus ΔfhuE mutant; assay type: in vivo; settings: mice infected with UNT091-1::ΔfhuE, single IV dose at 2 h, burden at 26 hours
Protocol: FIG. 6 is a graph showing CFU per lung pair in mice inoculated with A. baumannii strains. Neutropenic, female CD-1 mice (5 per group) were inoculated intranasally (t=0 hr) with equivalent titers (6.90 and 6.93 log10 CFU) of A. baumannii UNT091-1 wildtype and A. baumannii UNT091-1 ΔfhuE mutant. The treatment (single IV dose) was administered at 2-hour post-infection and bacterial burden was reported at 26 hours by determining CFU/lung. Furthermore, the effect of RBT was blunted in mice infected with the UNT091-1::ΔfhuE strain supporting the role of fhuE as mediating RBT sensitivity both in vitro and in vivo.

[10] = tested on: panel of 293 CRAB strains (A. baumannii); assay: MIC by agar dilution on Muller Hinton Agar, panel of 293 CRAB strains; assay type: cell-based
Protocol: The strain panel contained isolates with 10% MDR (n=29), 86% XDR (n=253) and 4% (n=11) PDR phenotypes. Isolates were collected mainly from patients with pneumonia (59%), bloodstream infections (28%), and skin and soft tissue infections (11%) and categorized according to CLSI breakpoints as XDR when […] the antimicrobial classes described by Magiorakos et al. 2011. […] Comparator antibiotics were tested at CLSI standard conditions.

A. baumannii [11] = assay: Liquid MIC determination using RPMI supplemented with FCS, clinical panel; assay type: cell-based; settings: Acinetobacter baumannii
Text: All isolates were resistant to carbapenems.

[12] = tested on: A. baumannii ATCC-17978 expressing FhuE V38P; assay: Complementation assay, plasmid mediated expression of FhuE variants in CA-MHB; assay type: cell-based; settings: ATCC-17978 host, 1 mM IPTG
Text: See, Cadieux, N., Bradbeer, C. & Kadner, R. J. Sequence changes in the ton box region of BtuB affect its transport activities and interaction with TonB protein. J. Bacteriol. 182, 5954-5961 (2000); Funahashi, T. et al. Identification and characterization of an outer membrane receptor gene in Acinetobacter baumannii required for utilization of desferricoprogen, rhodotorulic acid, and desferrioxamine B as xenosiderophores. Biol. Pharm. Bull. 35, 753-760 (2012); the content of each of which is incorporated herein by reference.

[13] = Acinetobacter baumannii, iron-chelated nutrient rich MHA (0.1 mM PIH), agar dilution

CO[C@H]1/C=C/O[C@@]2(C)Oc3c(C)c(O)c4c(c3C2=O)C2=NC3(CCN(CC(C)C)CC3)NC2=C(NC(=O)/C(C)=C\C=C\[C@H](C)[C@H](O)[C@@H](C)[C@@H](O)[C@@H](C)[C@H](OC(C)=O)[C@@H]1C)C4=O [rifabutin]
MIC (A. baumannii HUMC1; HUMC1, HUMC1, RPMI plus 10% FCS (Table 1)): 2 ng/mL
MIC (A. baumannii HUMC1; HUMC1, HUMC1 parental strain, RPMI + 10% FCS (Table 2)): 2 ng/mL
MIC (A. baumannii UNT091 [1]; UNT091, UNT091, CA-MHB (Table 1)): 8000 ng/mL (≈ 9.44 µM)
MIC (A. baumannii UNT091 [1]; UNT091, UNT091, RPMI plus 10% FCS (Table 1)): 2 ng/mL
MIC (A. baumannii UNT091 [1]; UNT091, UNT091 parental strain, RPMI + 10% FCS (Table 2)): 2 ng/mL
MIC (A. baumannii ATCC 17978; ATCC17978, read-out: rifabutin MIC, FhuE expressing plasmid, CA-MHB 1 mM IPTG): 0.002 µg/mL (≈ 0.00236 µM)
MIC (A. baumannii ATCC 17978; ATCC17978, read-out: rifabutin MIC, FhuE expressing plasmid, CA-MHB no IPTG): 0.016 µg/mL (≈ 0.0189 µM)
MIC (A. baumannii ATCC 17978; ATCC17978, read-out: rifabutin MIC, empty plasmid, CA-MHB 1 mM IPTG): 2 µg/mL (≈ 2.36 µM)
MIC (A. baumannii ATCC 17978; ATCC17978, read-out: rifabutin MIC, empty plasmid, CA-MHB no IPTG): 1 µg/mL (≈ 1.18 µM)
MIC (A. baumannii ATCC 17978; ATCC17978, read-out: rifabutin MIC, no plasmid, CA-MHB 1 mM IPTG): 4 µg/mL (≈ 4.72 µM)
MIC (A. baumannii ATCC 17978; ATCC17978, read-out: rifabutin MIC, no plasmid, CA-MHB no IPTG): 4 µg/mL (≈ 4.72 µM)
MIC lower in fhuE expressing plasmid strain compared to empty plasmid strain (A. baumannii ATCC 17978; in the presence of IPTG): 1000 fold
Frequency of Mutational Resistance (FoR) (A. baumannii ACC00445 [2]; ACC00445, rifabutin 0.02 mg/L): 1.10E−05
Frequency of Mutational Resistance (FoR) (A. baumannii ACC00445 [2]; ACC00445, rifabutin 0.2 mg/L): 8.10E−06
Frequency of Mutational Resistance (FoR) (A. baumannii ACC00445 [2]; ACC00445, rifabutin 2 mg/L): 2.40E−09
Frequency of Mutational Resistance (FoR) (A. baumannii ACC00445 [2]; ACC00445, rifabutin 20 mg/L): 5.70E−09
Frequency of Mutational Resistance (FoR) (A. baumannii HUMC-1): 1.70E−05
Frequency of Mutational Resistance (FoR) (A. baumannii LAC-4; LAC-4, rifabutin 0.2 mg/L): 7.00E−05
Frequency of Mutational Resistance (FoR) (A. baumannii LAC-4; LAC-4, rifabutin 2 mg/L): 5.00E−09
Frequency of Mutational Resistance (FoR) (A. baumannii LAC-4; LAC-4, rifabutin 20 mg/L): 4.20E−09
Frequency of Mutational Resistance (FoR) (A. baumannii UNT091 [3]; UNT091, rifabutin 0.02 mg/L): 7.80E−06
Frequency of Mutational Resistance (FoR) (A. baumannii UNT091 [3]; UNT091, rifabutin 0.2 mg/L): 6.40E−06
Frequency of Mutational Resistance (FoR) (A. baumannii UNT091 [3]; UNT091, rifabutin 2 mg/L): 7.10E−09
Frequency of Mutational Resistance (FoR) (A. baumannii UNT091 [3]; UNT091, rifabutin 20 mg/L): 7.80E−09
Frequency of Mutational Resistance (FoR) (A. baumannii UNT238; UNT238, rifabutin 0.2 mg/L): 2.30E−05
Frequency of Mutational Resistance (FoR) (A. baumannii UNT238; UNT238, rifabutin 2 mg/L): 8.80E−10
Frequency of Mutational Resistance (FoR) (A. baumannii UNT238; UNT238, rifabutin 20 mg/L): 1.60E−08
frequency of mutational resistance [4]: ~10^−9
protection against sepsis (A. baumannii ACC00445 [5]): protects against sepsis
effect on colony forming units in the lungs (A. baumannii UNT091 [6]): potent effect
effect on colony forming units in the lungs (A. baumannii UNT093): potent effect
dose fractionation result (A. baumannii [7]): clear dose response relationship
Target AUC required to treat (A. baumannii [8]; MIC 0.5 mg/L): 5.74 mg·h/L
Target Cmax required to treat (A. baumannii [8]; MIC 0.5 mg/L): 1.30 mg/L
Target AUC required to treat (A. baumannii [8]; MIC 1 mg/L): 11.48 mg·h/L
Target Cmax required to treat (A. baumannii [8]; MIC 1 mg/L): 2.59 mg/L
Target AUC required to treat (A. baumannii [8]; MIC 2 mg/L): 22.96 mg·h/L
Target Cmax required to treat (A. baumannii [8]; MIC 2 mg/L): 5.19 mg/L
effect on bacterial burden (CFU/lung) [9]: blunted
MIC50 [10, 13]: 8 ng/mL (≈ 0.00944 µM)
MIC90 [10, 13]: 1 µg/mL (≈ 1.18 µM)
activity ([10]; standard MHA): only marginal activity
MIC50 (A. baumannii [11]): 4 ng/mL (≈ 0.00472 µM)
MIC90 (A. baumannii [11]): 2 µg/mL (≈ 2.36 µM)
restoration of potent activity by FhuE V38P expression compared to wildtype FhuE [12]: not able to restore rifabutin potent activity
